Experimental data reported in patent US11786597B2, “Ionic liquids for transdermal drug delivery” (priority 2013, dated 2023).
“And” between values parts separate entries of the source, which are not always exact repeats. Identical values can stand only once. Like-named read-outs stand apart in the source and are kept apart here. Marks after values point to notes of the source that are not given here.

Tests used:
Conductivity of neat IL = format: physicochemical
Experimental: (§1) Determinations of conductivity were made on an ION450 benchtop meter (Radiometer Analytical) with a 2-pole electrode designed for use in viscous liquids (Radiometer Analytical CDC241-9) and calibrated with KCl. Conductivity was measured three times per sample on stirred 3 mL volumes of neat IL at 25° C. Density was measured three times per IL using a 1 mL volumetric flask and an analytical balance.

[1] = Density (volumetric flask and balance); format: physicochemical
Experimental: as §1

[2] = Solubility in water (physical characterization); details: for solubility in water: 25° C.
[3] = Determination of lipophilicity (octanol/water distribution by UV absorbance); format: physicochemical; details: for percent in octanol: after extraction with water
Experimental: A 250 mL volume of n-octanol was shaken with 100 mL of ddH2O and left overnight. […]
The absorption of the octanol layer and water layers were measured and compared with the absorbance of the stock solutions. Measurements were repeated three times and the distribution coefficients were reported as the average. The percent of IL in octanol was calculated as the absorbance of the octanol layer after extraction divided by the absorbance of IL in octanol before extraction. The water/octanol distribution coefficient was calculated as the logarithm of the percent of IL in octanol divided by the percent of IL in water.

[4] = Calculations of molarity and ionic strength; format: physicochemical; details: neat IL, Table 5
[5] = Viscosity (Viscolab 3000 viscometer); format: physicochemical
Experimental: Viscosity was measured on 1 mL samples with a Viscolab 3000 viscometer (Cambridge Viscosity, Medford, MA). […] Low-temperature differential scanning calorimetry (DSC) was performed on a DSC882e instrument (Mettler-Toledo Inc., Columbus, Ohio) under N2 atmosphere over two complete scans of a temperature range of −60 to 120° C. with a ramp rate of 10° C. per minute and a sample size of 18-21 mg in an aluminum crucible.

[6] = system: Normal human bronchial epithelial (NHBE) cells; assay: WST-1 proliferation assay, 24 h exposure to diluted ILs
Experimental: Normal human bronchial epithelial (NHBE) cells were purchased (Lonza, Walkersville, MD) and cultured using bronchial epithelial cell growth media (BEGM, Clonetics Bullet Kit, Lonza, Walkersville, MD) on 100 mm tissue culture treated Petri dishes (Santa Cruz Biotechnologies, Santa Cruz, CA) coated with 50 μg/mL type I rat tail collagen (BD Biosciences, Bedford, MA). Cells were stored in an incubator with a humidified atmosphere at 37° C. and 5% CO2. Cells were fed two times weekly and passaged via trypsinization. Experimentation was performed in triplicate on cells harvested from passages 3 to 7.
NHBE cells were plated in 96-well tissue culture plates at a concentration of 1.5×10^4 cells/well in a volume of 200 μL and allowed to acclimate overnight. On the day of experimentation, treatment plates were prepared using stock ionic liquid diluted in BEGM and then serially diluted 3-fold for a total of 7 concentrations. The 96-well plates containing cells were then aspirated and the treatments (150 μL/well) were carefully transferred from the prep plate to the cells. Cells were exposed to the ionic liquids for 24 hours. Two hours prior to the end of the exposure time, positive control cell wells were aspirated, and a solution of 1% Triton-100 (150 μL/well) was added.
To assess cellular proliferation, water-soluble tetrazolium (WST-1) reagent (Clontech, Mountain View, CA) was added directly to cells, at a 1:10 dilution of the remaining media volume (7.5 μL of WST-1 reagent was added per 75 μL remaining cell culture media). NHBE cells exposed to media only and 1% Triton in BEGM were included as controls. Ionic liquid controls at the highest concentrations tested were included in wells without cells to rule out ionic liquid/assay reagent interference.

[7] = system: P. aeruginosa (Pseudomonas) biofilm; details: neat IL
[8] = system: S. enterica (Salmonella) biofilm; details: neat IL
porcine skin = assay: Skin transport of 3H-Mannitol in Franz diffusion cell; format: in vitro ADME
Experimental: FIG. 1 is a schematic of the skin transport experiment set-up and analysis. Porcine skin was loaded into the Franz diffusion cell (FDC) with the stratum corneum (SC) facing up. Skin was incubated in contact with 3H-labeled drug dissolved in donor solution for 24 hrs, at 37° C., with stirring. After 24 hrs the donor solution was removed and skin thoroughly washed. The SC was separated from the epidermis by tape stripping. Ten tape strips were applied, each tape corresponding to 1 “layer” of SC. Ten tape strips were assumed to remove the entire SC. Epidermis was separated from dermis using a razor blade. Acceptor solution was collected, and drug transport into various tissue layers was quantified by scintillation counter.
3H-labeled Mannitol and Cefadroxil were obtained from American Radiolabeled Chemicals, Inc. and Moravek, respectively. FDCs were used to assess the transport enhancement of ionic liquids using a previously established protocol. Karande, et al., “Discovery of transdermal penetration enhancers by high-throughput screening”, Nat Biotechnol, 22(2): 192-7 (2004). Briefly, the acceptor chamber was filled with degassed PBS and a small stir bar added. Thawed porcine skin was clamped in place between the acceptor and donor chambers with the SC facing up. Care was taken to ensure no air bubbles resided in the acceptor chamber. Ionic liquids or PBS (control) were spiked with 3H-labeled drug (Mannitol and Cefadroxil) to a final concentration of 10 μCi/ml. 300 μL of donor solution was added to the donor chamber and incubated in contact with the SC for 24 hr, at 37° C., with stirring.
After 24 hr, the donor solution was removed, and the skin was thoroughly washed and dried.
SC was separated from epidermis by tape stripping. Ten tape strips were performed in an identical fashion, with each tape corresponding to 1 SC “layer”. Ten strips were assumed to remove the majority of the SC. Epidermis was separated from dermis with a razor blade, and the acceptor solution was collected from the acceptor chamber. Samples from each tissue layer and acceptor solution were dissolved in Soluble (Perkin Elmer, Waltham, MA) overnight and the concentration of radiolabeled solute was measured using a scintillation counter (Packard Tri-Carb 2100 TR, Meriden, CT).

[9] = read-out: IC50 at 24 h, WST, NHBE cells, 24 h, lower limits where solubility precluded IC50

Compound: CCCCCC(=O)[O-].CCCCCCCCCCCCCC[P+](CCCCCC)(CCCCCC)CCCCCC [LANL-20, [PC14H29(C6H13)3][hexanoate]]
- conductivity (Conductivity of neat IL; 25° C.): 0.488 mS/cm
- conductivity (Conductivity of neat IL; Table 5): 0.488 mS/cm
- density ([1]; 25° C.): 0.912 g/mL
- density ([1]; Table 5): 0.912 g/mL
- solubility in water [2]: trace
- percent in octanol ([3]; Table 3): 65 +/− 14%
- log Po/w ([3]; octanol/water, Table 3): 0.26
- ionic strength [4]: 1.63 M
- molarity [4]: 1.63 M
- viscosity ([5]; 25° C.): 154 cP
- viscosity ([5]; Table 5): 154 cP

Compound: CCCCCCCC/C=C\CCCCCCCC(=O)O.CCCCCCCC/C=C\CCCCCCCC(=O)[O-].C[N+](C)(C)CCO
- conductivity (Conductivity of neat IL; 25° C.): 0.087 mS/cm
- conductivity (Conductivity of neat IL; Table 5): 0.0871^b mS/cm
- density ([1]; 25° C.): 0.98 g/mL
- density ([1]; Table 5): 0.98 g/mL
- density ([1]; text b173): 0.98 g/mL
- partitioning into octanol [3]: partitioned well into octanol
- percent moving into the octanol layer ([3]; after 1 min of agitation): 95%
- percent in octanol ([3]; Table 3): 95 +/− 3%
- ionic strength [4]: 1.47 M
- molarity [4]: 1.47 M
- toxicity to human primary cells [6]: very toxic
- IC50 ([6]; NHBE cells, text b165): 0.034 mM
- viscosity ([5]; 25° C.): 880 cP
- viscosity ([5]; Table 5): 162.3^b cP
- viscosity ([5]; text b171): 162 cP

Compound: CCCCCCn1cc[n+](C)c1.[Cl-] [LANL-7, 1-Hexyl-3-Methylimidazolium Chloride]
- conductivity (Conductivity of neat IL; 25° C.): 0.340 mS/cm
- conductivity (Conductivity of neat IL; Table 5): 0.340 mS/cm
- density ([1]; 25° C.): 1.005 g/mL
- density ([1]; Table 5): 1.01 g/mL
- anti-biofilm efficacy [7]: effective
- solubility ([2]; water, 25 °C): 700 mM
- percent in octanol ([3]; Table 3): 52 +/− 9%
- logP ([3]; n-octanol/water, octanol/water, Table 3): 0.04
- ionic strength [4]: 4.96 M
- molarity [4]: 4.96 M
- IC50 ([6]; Homo sapiens, NHBE): 10 mM
- IC50 ([6]; Homo sapiens, NHBE, 24 h, read-out: IC50 at 24 h): 10 mM
- toxicity to human primary cells ([6]; solubilized in culture medium): low toxicity
- viscosity ([5]; 25° C.): 680 cP
- viscosity ([5]; Table 5): 679.5 cP
- anti-biofilm efficacy [8]: effective

Compound: CCCC[N+]1(C)CCCC1.O=S(=O)([N-]S(=O)(=O)C(F)(F)F)C(F)(F)F [LANL-1, 1-Butyl-1-methylpyrrolidinium (BMP)—bistriflimide (NTf2)]
- conductivity (Conductivity of neat IL; 25° C.): 1.99 mS/cm
- conductivity (Conductivity of neat IL; Table 5): 1.99 mS/cm
- density ([1]; 25° C.): 1.39 g/mL
- density ([1]; Table 5): 1.39 g/mL
- partitioning into octanol [3]: partitioned poorly into octanol
- percent in octanol ([3]; Table 3): 20% +/− 7%
- percentage in the water phase ([3]; starting concentration of 0.2 M in octanol): 51%
- percentage not incorporated in octanol or water ([3]; starting concentration of 0.2 M in octanol, third phase): 29%
- ionic strength [4]: 3.28 M
- molarity [4]: 3.28 M
- toxicity to human primary cells [6]: low toxicity
- IC50 [6, 9]: > 2 mM
- viscosity ([5]; 25° C.): 72.7 cP
- viscosity ([5]; Table 5): 72.72 cP

Compound: CC(C)=CCC/C(C)=C/C(=O)[O-].CCCCCCCCCCCCCC[P+](CCCCCC)(CCCCCC)CCCCCC [LANL-22, [PC14H29(C6H13)3][geranate]]
- conductivity (Conductivity of neat IL; 25° C.): 0.156 mS/cm
- conductivity (Conductivity of neat IL; Table 5): 0.156 mS/cm
- density ([1]; 25° C.): 0.931 g/mL
- density ([1]; Table 5): 0.931 g/mL
- log Po/w [3]: 0.86
- percent in octanol ([3]; Table 3): 88 +/− 6%
- ionic strength [4]: 1.43 M
- molarity [4]: 1.43 M
- viscosity ([5]; 25° C.): 122 cP
- viscosity ([5]; Table 5): 122.3 cP

Compound: O=S(=O)(NS(=O)(=O)C(F)(F)F)C(F)(F)F [LANL-12, choline-NTf2]
- IC50 [6, 9]: 1.7 mM

Compound: CCCCCCCC/C=C\CCCCCCCC(=O)[O-].CCCCCCCCCCCCCC[P+](CCCCCC)(CCCCCC)CCCCCC [LANL-19, [PC14H29(C6H13)3][oleate]]
- conductivity (Conductivity of neat IL; 25° C.): 0.016 mS/cm
- conductivity (Conductivity of neat IL; Table 5): 0.0162 mS/cm
- density ([1]; 25° C.): 0.882 g/mL
- density ([1]; Table 5): 0.882 g/mL
- log Po/w [3]: 1.14
- percent in octanol ([3]; Table 3): 93 +/− 2%
- ionic strength [4]: 1.24 M
- molarity [4]: 1.15 M
- viscosity ([5]; 25° C.): 299 cP
- viscosity ([5]; Table 5): 300 cP
- loss/partitioning of solute to the acceptor solution (porcine skin; 3H-Mannitol): no additional loss of solute to the acceptor solution
- transport enhancement into/through all layers of the skin (porcine skin; 3H-Mannitol, relative to PBS control): 5-10 fold
- skin transport properties (porcine skin; materials in lower right portion of Walden plot): best skin transport properties

Compound: C[N+](C)(C)CCO.O=S(=O)([N-]S(=O)(=O)C(F)(F)F)C(F)(F)F [LANL-12, choline-NTf2]
- conductivity (Conductivity of neat IL; 25° C.): 1.46 mS/cm
- conductivity (Conductivity of neat IL; Table 5): 1.460 mS/cm
- density ([1]; 25° C.): 1.5 g/mL and 1.53 g/mL
- density ([1]; Table 5): 1.54 g/mL
- solubility in water [2]: 1700 mM
- percent in octanol ([3]; Table 3): 67 +/− 9%
- log Po/w ([3]; octanol/water, Table 3): 0.31
- ionic strength [4]: 4.40 M
- molarity [4]: 4.40 M
- viscosity ([5]; 25° C.): 125 cP
- viscosity ([5]; Table 5): 125 cP

Compound: choline hexanoate [LANL-13]
- conductivity (Conductivity of neat IL; 25° C.): 0.816 mS/cm
- conductivity (Conductivity of neat IL; Table 5): 0.816 mS/cm
- conductivity (Conductivity of neat IL; text b172): 0.816 mS/cm
- density ([1]; 25° C.): 1.01 g/mL
- density ([1]; Table 5): 1.01 g/mL
- anti-biofilm efficacy [7]: effective
- percent in octanol ([3]; Table 3): 51 +/− 2%
- ionic strength [4]: 3.02 M
- molarity [4]: 3.02 M
- toxicity to human primary cells [6]: low toxicity
- viscosity ([5]; 25° C.): 181 cP
- viscosity ([5]; Table 5): 180.9 cP
- drug permeation into the SC (porcine skin; 3H-Mannitol, 24 hr, 37° C.): inhibited drug permeation into the SC
- anti-biofilm efficacy [8]: effective

Compound: choline malonate [LANL-5]
- conductivity (Conductivity of neat IL; 25° C.): 0.429 mS/cm
- conductivity (Conductivity of neat IL; Table 5): 0.429 mS/cm
- density ([1]; 25° C.): 1.266 g/mL
- density ([1]; Table 5): 1.27 g/mL
- density ([1]; text b173): 1.27 g/mL
- anti-biofilm efficacy [7]: effective
- ionic strength [4]: 5.20 M
- molarity [4]: 5.20 M
- viscosity ([5]; 25° C.): 920 cP
- viscosity ([5]; Table 5): 920.1 cP
- anti-biofilm efficacy [8]: effective

Compound: NC(N)=O [LANL-6, urea-choline]
- IC50 ([6]; NHBE cells, text b165): > 10 mM
- IC50 [6, 9]: > 10 mM
